US20260053811A1, “METHODS OF TREATING HYPERTENSION IN OBESE SUBJECTS” (Mineralys Therapeutics, Inc., priority 2022, published 2026)

Tested on: hypertensive subjects
Assay: Adverse events (TEAEs, SAEs, AESI, study drug discontinuation, dose modification);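 also: counts of spontaneously reported adverse events in the Safety Analysis Set, subjects grouped by treatment actually received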
Type: in vivo, human
Source text: In analyses performed on the Safety Analysis Set, subjects will be analyzed according to their actual treatment received.

CC(=O)N[C@H]1CC[C@H](NC(=O)CN2CCN(c3nncc(-c4ccc(C)cc4)n3)CC2)CC1 [Compound A HBr]
TEAE leading to permanent discontinuation from study drug: Orthostatic hypotension (Part 1, 100 mg QD (N = 30)): 0 n (%)
TEAE leading to permanent discontinuation from study drug: Vascular disorders (Part 1, 100 mg QD (N = 30)): 1 (3.3) n (%)
On-treatment TEAE: Blood and lymphatic system disorders (Part 1, Active (N = 133)): 2 (1.5) n (%)
On-treatment TEAE: Blood and lymphatic system disorders, Mild (Part 1, Active (N = 133)): 2 (1.5) n (%)
On-treatment TEAE: Blood creatinine increased (Part 1, Active (N = 133)): 3 (2.3) n (%)
On-treatment TEAE: Blood creatinine increased, Mild (Part 1, Active (N = 133)): 3 (2.3) n (%)
On-treatment TEAE: Cardiac disorders (Part 1, Active (N = 133)): 4 (3.0) n (%)
On-treatment TEAE: Cortisol decreased (Part 1, Active (N = 133)): 3 (2.3) n (%)
On-treatment TEAE: Cortisol decreased, Mild (Part 1, Active (N = 133)): 3 (2.3) n (%)
On-treatment TEAE: Dizziness (Part 1, Active (N = 133)): 3 (2.3) n (%)
On-treatment TEAE: Gastrointestinal disorders (Part 1, Active (N = 133)): 6 (4.5) n (%)
On-treatment TEAE: Gastrointestinal disorders, Mild (Part 1, Active (N = 133)): 5 (3.8) n (%)
On-treatment TEAE: General disorders and administration site conditions (Part 1, Active (N = 133)): 5 (3.8) n (%)
On-treatment TEAE: General disorders and administration site conditions, Mild (Part 1, Active (N = 133)): 2 (1.5) n (%)
On-treatment TEAE: Glomerular filtration rate decreased (Part 1, Active (N = 133)): 9 (6.8) n (%)
On-treatment TEAE: Glomerular filtration rate decreased, Mild (Part 1, Active (N = 133)): 8 (6.0) n (%)
On-treatment TEAE: Headache (Part 1, Active (N = 133)): 3 (2.3) n (%)
On-treatment TEAE: Headache, Mild (Part 1, Active (N = 133)): 3 (2.3) n (%)
On-treatment TEAE: Hyperkalaemia (Part 1, Active (N = 133)): 31 (23.3) n (%)
On-treatment TEAE: Hyperkalaemia, Mild (Part 1, Active (N = 133)): 26 (19.5) n (%)
On-treatment TEAE: Hyperkalaemia, Moderate (Part 1, Active (N = 133)): 4 (3.0) n (%)
On-treatment TEAE: Hyperkalaemia, Severe (Part 1, Active (N = 133)): 1 (0.8) n (%)
On-treatment TEAE: Hypertension (Part 1, Active (N = 133)): 5 (3.8) n (%)
On-treatment TEAE: Hypertension, Moderate (Part 1, Active (N = 133)): 3 (2.3) n (%)
On-treatment TEAE: Infections and infestations (Part 1, Active (N = 133)): 11 (8.3) n (%)
On-treatment TEAE: Infections and infestations, Mild (Part 1, Active (N = 133)): 5 (3.8) n (%)
On-treatment TEAE: Infections and infestations, Moderate (Part 1, Active (N = 133)): 6 (4.5) n (%)
On-treatment TEAE: Investigations (Part 1, Active (N = 133)): 21 (15.8) n (%)
On-treatment TEAE: Investigations, Mild (Part 1, Active (N = 133)): 17 (12.8) n (%)
On-treatment TEAE: Investigations, Moderate (Part 1, Active (N = 133)): 4 (3.0) n (%)
On-treatment TEAE: Metabolism and nutrition disorders (Part 1, Active (N = 133)): 34 (25.6) n (%)
On-treatment TEAE: Metabolism and nutrition disorders, Mild (Part 1, Active (N = 133)): 29 (21.8) n (%)
On-treatment TEAE: Metabolism and nutrition disorders, Moderate (Part 1, Active (N = 133)): 4 (3.0) n (%)
On-treatment TEAE: Nervous system disorders (Part 1, Active (N = 133)): 8 (6.0) n (%)
On-treatment TEAE: Nervous system disorders, Mild (Part 1, Active (N = 133)): 6 (4.5) n (%)
On-treatment TEAE: Orthostatic hypotension (Part 1, Active (N = 133)): 3 (2.3) n (%)
On-treatment TEAE: Orthostatic hypotension, Mild (Part 1, Active (N = 133)): 3 (2.3) n (%)
On-treatment TEAE: Psychiatric disorders (Part 1, Active (N = 133)): 3 (2.3) n (%)
On-treatment TEAE: Psychiatric disorders, Moderate (Part 1, Active (N = 133)): 3 (2.3) n (%)
On-treatment TEAE: Urinary tract infection (Part 1, Active (N = 133)): 7 (5.3) n (%)
On-treatment TEAE: Urinary tract infection, Mild (Part 1, Active (N = 133)): 4 (3.0) n (%)
On-treatment TEAE: Vascular disorders (Part 1, Active (N = 133)): 9 (6.8) n (%)
On-treatment TEAE: Vascular disorders, Mild (Part 1, Active (N = 133)): 5 (3.8) n (%)
On-treatment TEAE: Vascular disorders, Moderate (Part 1, Active (N = 133)): 4 (3.0) n (%)
On-treatment TEAE: any, Mild (Part 1, Active (N = 133)): 47 (35.3) n (%)
On-treatment TEAE: any, Moderate (Part 1, Active (N = 133)): 25 (18.8) n (%)
On-treatment TEAE: any, Severe (Part 1, Active (N = 133)): 1 (0.8) n (%)
Subjects with any On-treatment TEAEs leading to withdrawal from study drug (Part 1, Active (N = 133)): 10 (7.5) n (%)
TEAE leading to permanent discontinuation from study drug: Activated partial thromboplastin time prolonged (Part 1, Active (N = 133)): 1 (0.8) n (%)
TEAE leading to permanent discontinuation from study drug: Cardiac disorders (Part 1, Active (N = 133)): 1 (0.8) n (%)
TEAE leading to permanent discontinuation from study drug: Coronary artery disease (Part 1, Active (N = 133)): 1 (0.8) n (%)
TEAE leading to permanent discontinuation from study drug: Dizziness (Part 1, Active (N = 133)): 1 (0.8) n (%)
TEAE leading to permanent discontinuation from study drug: Hyperkalaemia (Part 1, Active (N = 133)): 5 (3.8) n (%)
TEAE leading to permanent discontinuation from study drug: Hypertension (Part 1, Active (N = 133)): 1 (0.8) n (%)
TEAE leading to permanent discontinuation from study drug: Hypotension (Part 1, Active (N = 133)): 1 (0.8) n (%)
TEAE leading to permanent discontinuation from study drug: Investigations (Part 1, Active (N = 133)): 1 (0.8) n (%)
TEAE leading to permanent discontinuation from study drug: Metabolism and nutrition disorders (Part 1, Active (N = 133)): 5 (3.8) n (%)
TEAE leading to permanent discontinuation from study drug: Nervous system disorders (Part 1, Active (N = 133)): 1 (0.8) n (%)
TEAE leading to permanent discontinuation from study drug: Orthostatic hypotension (Part 1, Active (N = 133)): 1 (0.8) n (%)
TEAE leading to permanent discontinuation from study drug: Vascular disorders (Part 1, Active (N = 133)): 3 (2.3) n (%)
Dose titration: Hyperkalemia, subjects n (%) (Part 1 All active (N 159)): 6 (3.8%)
Dose titration: Hyponatremia, subjects n (%) (Part 1 All active (N 159)): 0
Dose titration: Other possibly related, subjects n (%) (Part 1 All active (N 159)): 0
Dose titration: Other unrelated, subjects n (%) (Part 1 All active (N 159)): 1 (0.6%)
Study drug discontinuation: Hyperkalemia, subjects n (%) (Part 1 All active (N 159)): 6 (3.8%)
Study drug discontinuation: Hyponatremia, subjects n (%) (Part 1 All active (N 159)): 0
Study drug discontinuation: Hypotension, subjects n (%) (Part 1 All active (N 159)): 2 (1.2%)
Study drug discontinuation: Other possibly related, subjects n (%) (Part 1 All active (N 159)): 1 (0.6%)
Study drug discontinuation: Other unrelated, subjects n (%) (Part 1 All active (N 159)): 11 (6.9%)
Deaths (Part 1 or Part 2): No deaths were reported
Subjects with TEAE resulting in dose modification (Part 2): 7
Dose titration: Hyperkalemia, subjects n (%) (Part 2 100mg QD (N 31)): 1 (3.2%)
Dose titration: Hyponatremia, subjects n (%) (Part 2 100mg QD (N 31)): 1 (3.2%)
Dose titration: Other possibly related, subjects n (%) (Part 2 100mg QD (N 31)): 0
Dose titration: Other unrelated, subjects n (%) (Part 2 100mg QD (N 31)): 0
Study drug discontinuation: Hyperkalemia, subjects n (%) (Part 2 100mg QD (N 31)): 0
Study drug discontinuation: Hyponatremia, subjects n (%) (Part 2 100mg QD (N 31)): 1 (3.4%)
Study drug discontinuation: Hypotension, subjects n (%) (Part 2 100mg QD (N 31)): 1 (2.8%)
Study drug discontinuation: Other possibly related, subjects n (%) (Part 2 100mg QD (N 31)): 0
Study drug discontinuation: Other unrelated, subjects n (%) (Part 2 100mg QD (N 31)): 1 (2.8%)
Subjects with any On-treatment TEAEs leading to withdrawal from study drug (Part 2, 100 mg QD (N = 31)): 2 (6.5) n (%)
TEAE leading to permanent withdrawal from study drug: Glomerular filtration rate decreased (Part 2, 100 mg QD (N = 31)): 1 (3.2) n (%)
TEAE leading to permanent withdrawal from study drug: Hyponatraemia (Part 2, 100 mg QD (N = 31)): 1 (3.2) n (%)
TEAE leading to permanent withdrawal from study drug: Investigations (Part 2, 100 mg QD (N = 31)): 1 (3.2) n (%)
TEAE leading to permanent withdrawal from study drug: Metabolism and nutrition disorders (Part 2, 100 mg QD (N = 31)): 1 (3.2) n (%)
TEAE leading to permanent withdrawal from study drug: Muscle spasms (Part 2, 100 mg QD (N = 31)): 1 (3.2) n (%)
TEAE leading to permanent withdrawal from study drug: Musculoskeletal and connective tissue disorders (Part 2, 100 mg QD (N = 31)): 1 (3.2) n (%)
Subjects with muscle spasms (PT) (Part 2, 100 mg QD cohort): 3 (9.7%)
Subjects with ≥1 moderate on-treatment TEAE (Part 2, 100 mg QD cohort): 12 (38.7%)
Dose titration: Hyperkalemia, subjects n (%) (Total active (N 190)): 7 (4.1%)
Dose titration: Hyponatremia, subjects n (%) (Total active (N 190)): 1 (0.5%)
Dose titration: Other possibly related, subjects n (%) (Total active (N 190)): 0
Dose titration: Other unrelated, subjects n (%) (Total active (N 190)): 1 (0.5%)
Study drug discontinuation: Hyperkalemia, subjects n (%) (Total active (N 190)): 6 (3.2%)
Study drug discontinuation: Hyponatremia, subjects n (%) (Total active (N 190)): 1 (0.5%)
Study drug discontinuation: Hypotension, subjects n (%) (Total active (N 190)): 3 (1.6%)
Study drug discontinuation: Other possibly related, subjects n (%) (Total active (N 190)): 1 (0.5%)
Study drug discontinuation: Other unrelated, subjects n (%) (Total active (N 190)): 12 (6.3%)
Subjects who developed orthostatic hypotension (fall of 20 mmHg SBP or 10 mmHg DBP sitting to standing): three
Episodes of severe hyperkalemia (pooled (Part 1 and Part 2) 100 mg QD safety set (n=60)): no episodes of severe hyperkalemia
Subjects with hypotension related to treatment (two in 100 mg QD cohorts (Part 1, Part 2), one in 12.5 mg BID): three
Serious adverse events (SAEs) related to the study medication (whole trial (Example 1 analysis)): No serious adverse events (SAEs) related to the study medication were observed
